Test results reported in patent US10351559B2, “Maleate salts of a B-RAF kinase inhibitor, crystalline forms, methods of preparation, and uses therefore” (BeiGene, Ltd., priority 2015, dated 2019).
Structures can show the parent of a compound that is named as a salt.

Experiments:
[1] = system: p-ERK in Calu-6 K-RAS mutant non-small cell lung adenocarcinoma xenograft models; experiment: PD study, p-ERK in tumor tissue, combination; format: in vivo, mice; conditions: Calu-6 xenograft, with MEK inhibitor AZD6244
Method: (§1) Human cancer cells were inoculated subcutaneously in the right axilla region of BALB/C nude mice to generate tumor xenografts. On the day of implantation, the cell culture medium was replaced with fresh medium. Three hours later, the media was removed and the cells were collected and re-suspended in cold (4° C.) PBS prior to inoculation. The right axilla region of each mouse was cleaned with 70% ethanol prior to cell inoculation. Each animal was injected subcutaneously with desired cells in 200 μl of cell suspension in the right front flank via a 26-gauge needle. After implantation tumor volumes were measured twice weekly in two dimensions using a calliper. Tumor volume was calculated using the formula: V=0.5×(a×b^2) where a and b are the long and short diameters of the tumor, respectively.
For PD study, when the average tumor size reaches 140-900 mm^3, animals were assigned into desired number of groups with 4 mice per group using a stratified randomization procedure. The groups consisted of a control group (no drug treatment), and different dose levels of Crystalline Form A* of Compound 1 Sesqui-Maleate treatment groups (ranged from 1-20 mg/kg). All doses were based on free-base weight. Drugs were administered by oral gavage once (qd) or twice (bid) daily. […] Body weight was assessed immediately before dosing and the volume dosed was adjusted accordingly. […]

[2] = pharmacokinetic study (LC-MS/MS); format: in vivo, Sprague-Dawley rats; conditions: rats
Description: The fully-validated LC-MS/MS method was well used for the pharmacokinetic (PK) studies of Crystalline Form A* of Compound 1 Sesqui-Maleate in Sprague-Dawley rats and beagle dogs following single- and multiple-dose administrations.

[3] = system: human Calu-6 lung adenocarcinoma (K-RAS mutation) tumors; experiment: xenograft efficacy study, combination; format: in vivo, BALB/C nude mice; conditions: Calu-6 tumors
Method: as §1
For in vivo efficacy studies, when the average tumor size reaches 100˜200 mm^3, animals were assigned into desired number of groups with 6-10 mice per group using a stratified randomization procedure. […] Body weight was assessed immediately before dosing and the volume dosed was adjusted accordingly. Individual body weights and tumor volumes were determined twice weekly, with mice being monitored daily for clinical signs of toxicity for the duration of the study. […] All group data was analyzed using the t test. […]
Tumor growth inhibition (TGI) was calculated using the following formula: […]

## O=C1CCc2c(Oc3ccc4c(c3)[C@@H]3[C@H](O4)[C@H]3c3nc4ccc(C(F)(F)F)cc4[nH]3)ccnc2N1 [5-(((1R,1aS,6bR)-1-(6-(trifluoromethyl)-1H-benzo[d]imidazol-2-yl)-1a,6b-dihydro-1H-cyclopropa[b]benzofuran-5-yl)oxy)-3,4-dihydro-1,8-naphthyridin-2(1H)-one sesqui-maleate salt]
[1]
  effect on inhibiting p-ERK in combination: strong synergistic effect
[2]; Sprague-Dawley, rat, in vivo, po
  bioavailability: 51 to 102%
[2]; Sprague-Dawley, rat, in vivo, after oral administration, read-out: elimination half-life
  half-life: 4.4 to 9.4 h
[2]
  accumulation after multiple dosing: ~2 fold
[2]; 0.5 to 15 mg/kg
  kinetics over dose range: linear
[3]; combined with docetaxel
  antitumor activity in combination: remarkable antitumor activity
[3]; combined with the MEK inhibitor selumetinib (AZD6244)
  antitumor activity in combination: remarkable antitumor activity
